Reference: patent publication US11203591B2, “Substituted 6-azabenzimidazole compounds” (Gilead Sciences, Inc., priority 2018, dated 2021)

molecular target: human HPK1 (MAP4K1) (Homo sapiens (Human), UniProt Q92918); assay: HPK1 IC50 Assay (TR-FRET peptide phosphorylation); format: biochemical; conditions: recombinant HPK1 kinase domain 0.15 nM, 10 μM ATP, 1 μM STK S1 peptide; geometric mean of multiple experiments
Outline: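 Pre-activated, dually phosphorylated baculovirus-expressed HPK1 kinase domain (0.15 nM) preincubated 15 min with compound, then reacted 3 h at 25° C with 10 μM ATP and 1 μM STK S1 peptide in BES pH 7.0 buffer. Phosphopeptide read by TR-FRET (665/620 nm); four-parameter fit, geometric-mean IC50.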

human HPK1 (MAP4K1), sequence (Q92918 17-274): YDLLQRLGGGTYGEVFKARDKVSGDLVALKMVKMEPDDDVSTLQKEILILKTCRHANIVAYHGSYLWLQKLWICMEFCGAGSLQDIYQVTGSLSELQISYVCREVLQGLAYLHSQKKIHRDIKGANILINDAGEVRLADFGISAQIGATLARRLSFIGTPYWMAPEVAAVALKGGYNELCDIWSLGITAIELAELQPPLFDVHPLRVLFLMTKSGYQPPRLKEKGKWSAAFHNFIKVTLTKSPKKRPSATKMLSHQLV

Q: Which IC50 does the source give for `CC(=O)N1CCC2(CC1)C(=O)N([C@H]1C[C@@H](N3CCCCC3)C1)c1cc(-c3cc4ncn(C(C)C)c4c(Nc4ccc(C)c(C(=O)NCCO)c4)n3)ccc12` [Example 132] here?
A: The IC50 was 0.1 nM.

Q: With `CCn1cnc2cc(-c3ccc4c(c3)N([C@H]3C[C@@H](NC(=O)C(C)(C)C)C3)C(=O)C4(C)C)nc(Nc3ccc(C)c(C(N)=O)c3)c21` [Example 133] as the compound, how does the IC50 read?
A: Its IC50 is 0.9 nM.

Q: Which IC50 does the source give for `Cc1cc(F)c(Nc2nc(-c3cnc4c(c3)N([C@H]3C[C@@H](N5CCCCC5)C3)C(=O)C4(C)C)cc3ncn(C(C)C)c23)cc1C(=O)NC1(CF)CC1` [Example 134] here?
A: Its IC50 is 0.3 nM.

Q: How did the IC50 turn out when `Cc1ccc(Nc2nc(-c3ccc4c(c3)N([C@H]3C[C@@H](NC(=O)C(C)(C)C)C3)C(=O)C4(C)C)cc3ncn(C(C)C)c23)cc1C(N)=O` [Example 135, 5-((6-(3,3-dimethyl-2-oxo-1-((1s,3s)-3-pivalamidocyclobutyl)indolin-6-yl)-3-isopropyl-3H-imidazo[4,5-c]pyridin-4-yl)amino)-2-methylbenzamide] was run?
A: The IC50 was 0.6 nM.

Q: For `Cc1ccc(Nc2nc(-c3ccc4c(c3)N([C@H]3C[C@@H](N5CCCCC5)C3)C(=O)C4(C)C)cc3ncn(C(C)C)c23)cc1C(=O)NC(C)C` [Example 136, 5-((6-(3,3-dimethyl-2-oxo-1-((1s,3s)-3-(piperidin-1-yl)cyclobutyl)indolin-6-yl)-3-isopropyl-3H-imidazo[4,5-c]pyridin-4-yl)amino)-N-isopropyl-2-methylbenzamide], which IC50 is on record?
A: Its IC50 is 0.1 nM.

Q: `COCCNC(=O)c1cc(Nc2nc(-c3ccc4c(c3)N([C@H]3C[C@@H](N5CCCCC5)C3)C(=O)C4(C)C)cc3ncn(C(C)C)c23)ccc1C` [Example 137] was tested. Which IC50 did it give?
A: Its IC50 is 0.1 nM.

Q: `CCNC(=O)c1cc(Nc2nc(-c3ccc4c(c3)N([C@H]3C[C@@H](N5CCCCC5)C3)C(=O)C4(C)C)cc3ncn(C(C)C)c23)ccc1C` [Example 138] was tested. Which IC50 did it give?
A: The IC50 was 0.1 nM.

Q: How did the IC50 turn out when `Cc1ccc(Nc2nc(-c3ccc4c(c3)N([C@H]3C[C@@H](N5CCCCC5)C3)C(=O)C4(C)C)cc3ncn(C(C)C)c23)cc1C(=O)NCC(C)C` [Example 139] was run?
A: The IC50 was 0.06 nM.

Q: `CNC(=O)c1cc(Nc2nc(-c3ccc4c(c3)N([C@H]3C[C@@H](N5CCCCC5)C3)C(=O)C4(C)C)cc3ncn(C(C)C)c23)ccc1OC(F)(F)F` [Example 140] was tested. Which IC50 did it give?
A: The IC50 was 0.3 nM.

Q: Which IC50 does the source give for `CNC(=O)c1cc(Nc2nc(-c3ccc4c(c3)N([C@H]3C[C@@H](N5CCCCC5)C3)C(=O)C4(C)C)cc3ncn(C(C)C)c23)ccc1C(F)(F)F` [Example 141] here?
A: Its IC50 is 0.07 nM.

Q: For `CNC(=O)c1cc(Nc2nc(-c3ccc4c(c3)N([C@H]3C[C@@H](N5CCCCC5)C3)C(=O)C4(C)C)cc3ncn(C(C)C)c23)ccc1C1CC1` [Example 142], which IC50 is on record?
A: The IC50 was 0.2 nM.

Q: For `CCc1ccc(Nc2nc(-c3ccc4c(c3)N([C@H]3C[C@@H](N5CCCCC5)C3)C(=O)C4(C)C)cc3ncn(C(C)C)c23)cc1C(=O)NC` [Example 143], which IC50 is on record?
A: Its IC50 is 0.06 nM.

Q: Which IC50 does the source give for `Cc1c(C(=O)NC2(C(F)F)CC2)cc(Nc2nc(-c3ccc4c(c3)N([C@H]3C[C@@H](N5CCCCC5)C3)C(=O)C4(C)C)cc3ncn(C(C)C)c23)c(F)c1F` [Example 144] here?
A: The IC50 was 0.07 nM.

Q: How did the IC50 turn out when `Cc1c(C(=O)NC2(C(F)F)CC2)cc(Nc2nc(-c3ccc4c(c3)N([C@H]3C[C@@H](N5C[C@H]6CC[C@@H]5C6)C3)C(=O)C4(C)C)cc3ncn(C(C)C)c23)c(F)c1F` [Example 145, 5-((6-(1-((1S,3s)-3-((1R,4S)-2-azabicyclo[2.2.1]heptan-2-yl)cyclobutyl)-3,3-dimethyl-2-oxoindolin-6-yl)-3-isopropyl-3H-imidazo[4,5-c]pyridin-4-yl)amino)-N-(1-(difluoromethyl)cyclopropyl)-3,4-difluoro-2-methylbenzamide] was run?
A: Its IC50 is 0.07 nM.

Q: For `CNC(=O)c1cc(Nc2nc(-c3ccc4c(c3)N([C@H]3C[C@@H](N5CCCCC5)C3)C(=O)C43CCN(C(=O)C(C)(C)O)CC3)cc3ncn(C(C)C)c23)ccc1C` [Example 146, 5-((6-(1′-(2-hydroxy-2-methylpropanoyl)-2-oxo-1-((1s,3s)-3-(piperidin-1-yl)cyclobutyl)spiro[indoline-3,4′-piperidin]-6-yl)-3-isopropyl-3H-imidazo[4,5-c]pyridin-4-yl)amino)-N,2-dimethylbenzamide], which IC50 is on record?
A: The IC50 was 0.1 nM.

Q: How did the IC50 turn out when `CNC(=O)c1cc(Nc2nc(-c3ccc4c(c3)N([C@H]3C[C@@H](N5CCCCC5)C3)C(=O)C43CCN(C(=O)[C@@H](C)O)CC3)cc3ncn(C(C)C)c23)ccc1C` [Example 147] was run?
A: The IC50 was 0.2 nM.

Q: `CNC(=O)c1cc(Nc2nc(-c3ccc4c(c3)N([C@H]3C[C@@H](N5CCCCC5)C3)C(=O)C43CCN(C(=O)C45CC(O)(C4)C5)CC3)cc3ncn(C(C)C)c23)ccc1C` [Example 148] was tested. Which IC50 did it give?
A: The IC50 was 0.2 nM.

Q: For `CNC(=O)c1cc(Nc2nc(-c3ccc4c(c3)N([C@H]3C[C@@H](N5CCCCC5)C3)C(=O)C43CCN(C(=O)C4(C)CCC4)CC3)cc3ncn(C4CC4)c23)ccc1C` [Example 149], which IC50 is on record?
A: The IC50 was 0.1 nM.

Q: How did the IC50 turn out when `CNC(=O)c1cc(Nc2nc(-c3ccc4c(c3)N([C@H]3C[C@@H](N5CCCCC5)C3)C(=O)C43CCN(C(=O)C4(C)CC4)CC3)cc3ncn(C4CC4)c23)ccc1C` [Example 150] was run?
A: The IC50 was 0.1 nM.

Q: `CNC(=O)c1cc(Nc2nc(-c3ccc4c(c3)N([C@H]3C[C@@H](N5CCCCC5)C3)C(=O)C43CCN(C(=O)[C@@H](C)O)CC3)cc3ncn(C4CC4)c23)ccc1C` [Example 151] was tested. Which IC50 did it give?
A: Its IC50 is 0.05 nM.

Q: For `CNC(=O)c1cc(Nc2nc(-c3ccc4c(c3)N([C@H]3C[C@@H](N5CCCCC5)C3)C(=O)C43CCN(C(=O)C4(C)CC4)CC3)cc3ncn(C(C)C)c23)ccc1C` [Example 152, 5-((3-isopropyl-6-(1′-(1-methylcyclopropane-1-carbonyl)-2-oxo-1-((1s,3s)-3-(piperidin-1-yl)cyclobutyl)spiro[indoline-3,4′-piperidin]-6-yl)-3H-imidazo[4,5-c]pyridin-4-yl)amino)-N,2-dimethylbenzamide], which IC50 is on record?
A: Its IC50 is 0.2 nM.

Q: How did the IC50 turn out when `CNC(=O)c1cc(Nc2nc(-c3ccc4c(c3)N([C@H]3C[C@@H](N5CCCCC5)C3)C(=O)C43CCN(C(=O)C4COC4)CC3)cc3ncn(C4CC4)c23)ccc1C` [Example 153] was run?
A: The IC50 was 0.1 nM.

Q: Which IC50 does the source give for `CNC(=O)c1cc(Nc2nc(-c3ccc4c(c3)N([C@H]3C[C@@H](N5CCCCC5)C3)C(=O)C43CCN(C(=O)C45CC(F)(C4)C5)CC3)cc3ncn(C4CC4)c23)ccc1C` [Example 154] here?
A: The IC50 was 0.06 nM.

Q: `CNC(=O)c1cc(Nc2nc(-c3ccc4c(c3)N([C@H]3C[C@@H](N5CCCCC5)C3)C(=O)C43CCN(C(=O)C4CCC4)CC3)cc3ncn(C4CC4)c23)ccc1C` [Example 155] was tested. Which IC50 did it give?
A: The IC50 was 0.06 nM.

Q: Which IC50 does the source give for `CNC(=O)c1cc(Nc2nc(-c3ccc4c(c3)N([C@H]3C[C@@H](N5CCCCC5)C3)C(=O)C43CCN(C(=O)C45CC(C4)C5)CC3)cc3ncn(C4CC4)c23)ccc1C` [Example 156] here?
A: The IC50 was 0.06 nM.

Q: For `CC[C@H](C)n1cnc2cc(-c3ccc4c(c3)N([C@H]3C[C@@H](N5CCC[C@@H](F)C5)C3)C(=O)C43CCN(C(C)=O)CC3)nc(Nc3ccc(C)c(C(=O)NC)c3)c21` [Example 157, 5-((6-(1′-acetyl-1-((1S,3R)-3-((R)-3-fluoropiperidin-1-yl)cyclobutyl)-2-oxospiro[indoline-3,4′-piperidin]-6-yl)-3-((S)-sec-butyl)-3H-imidazo[4,5-c]pyridin-4-yl)amino)-N,2-dimethylbenzamide], which IC50 is on record?
A: The IC50 was 0.2 nM.

Q: With `CC[C@H](C)n1cnc2cc(-c3ccc4c(c3)N([C@H]3C[C@@H](N5CCC6(C5)CC6(F)F)C3)C(=O)C43CCN(C(C)=O)CC3)nc(Nc3ccc(C)c(C(=O)NC)c3)c21` (some centres unmarked) [Example 158] as the compound, how does the IC50 read?
A: The IC50 was 0.2 nM.

Q: For `CNC(=O)c1cc(Nc2nc(-c3ccc4c(c3)N([C@H]3C[C@@H](N5CCC(C)(C)C5)C3)C(=O)C43CCN(C(C)=O)CC3)cc3ncn(C4CC4)c23)ccc1C` [Example 159], which IC50 is on record?
A: Its IC50 is 0.1 nM.

Q: Which IC50 does the source give for `CNC(=O)c1cc(Nc2nc(-c3ccc4c(c3)N([C@H]3C[C@@H](N5CC(C)(C)CC(C)(C)C5)C3)C(=O)C43CCN(C(C)=O)CC3)cc3ncn(C4CC4)c23)ccc1C` [Example 160] here?
A: Its IC50 is 0.08 nM.

Q: `CNC(=O)c1cc(Nc2nc(-c3ccc4c(c3)N([C@H]3C[C@@H](N5CCCC(C)(C)C5)C3)C(=O)C43CCN(C(C)=O)CC3)cc3ncn(C4CC4)c23)ccc1C` [Example 161] was tested. Which IC50 did it give?
A: The IC50 was 0.06 nM.

Q: For `CNC(=O)c1cc(Nc2nc(-c3ccc4c(c3)N([C@H]3C[C@@H](N5CCC[C@@H](F)C5)C3)C(=O)C43CCN(C(C)=O)CC3)cc3ncn(C(C)C)c23)ccc1C` [Example 162], which IC50 is on record?
A: Its IC50 is 0.1 nM.

Q: Which IC50 does the source give for `CNC(=O)c1cc(Nc2nc(-c3ccc4c(c3)N([C@H]3C[C@@H](N5CCCC6(C5)CC6(F)F)C3)C(=O)C43CCN(C(C)=O)CC3)cc3ncn(C4CC4)c23)ccc1C` (some centres unmarked) [Example 163] here?
A: The IC50 was 0.1 nM.

Q: With `CNC(=O)c1cc(Nc2nc(-c3ccc4c(c3)N([C@H]3C[C@@H](N5CCC6(C5)CC6(F)F)C3)C(=O)C43CCN(C(C)=O)CC3)cc3ncn(C(C)C)c23)ccc1C` (some centres unmarked) [Example 164] as the compound, how does the IC50 read?
A: Its IC50 is 0.2 nM.

Q: `CNC(=O)c1cc(Nc2nc(-c3ccc4c(c3)N([C@H]3C[C@@H](N5CCC(C)(C)C5)C3)C(=O)C43CCN(C(C)=O)CC3)cc3ncn(C(C)C)c23)ccc1C` [Example 165] was tested. Which IC50 did it give?
A: Its IC50 is 0.1 nM.

Q: Which IC50 does the source give for `CNC(=O)c1cc(Nc2nc(-c3ccc4c(c3)N([C@H]3C[C@@H](N5CCCC6(CC6)C5)C3)C(=O)C43CCN(C(C)=O)CC3)cc3ncn(C4CC4)c23)ccc1C` [Example 166] here?
A: The IC50 was 0.1 nM.

Q: With `CNC(=O)c1cc(Nc2nc(-c3ccc4c(c3)N([C@H]3C[C@@H](N5CCCCC5)C3)C(=O)C43CCN(S(=O)(=O)C4CC4)CC3)cc3ncn(C4CC4)c23)ccc1C` [Example 167] as the compound, how does the IC50 read?
A: The IC50 was 0.1 nM.

Q: With `CNC(=O)c1cc(Nc2nc(-c3ccc4c(c3)N([C@H]3C[C@@H](N5CCCCC5)C3)C(=O)C43CCN(S(C)(=O)=O)CC3)cc3ncn(C4CC4)c23)ccc1C` [Example 168] as the compound, how does the IC50 read?
A: Its IC50 is 0.1 nM.

Q: `CC[C@H](C)n1cnc2cc(-c3ccc4c(c3)N([C@H]3C[C@@H](N5CCCCC5)C3)C(=O)C43CCN(C(=O)OC)CC3)nc(Nc3ccc(C)c(C(=O)NC)c3)c21` [Example 169] was tested. Which IC50 did it give?
A: Its IC50 is 0.1 nM.
